From US8658801B2, “Pesticides containing a bicyclic bisamide structure” (Syngenta Crop Protection, LLC, priority 2006, dated 2014)

Experiments:
[1] = tested on: Spodoptera littoralis (Egyptian Cotton Leafworm); experiment: Example B1: activity against Spodoptera littoralis, larvicide, feeding/residual contact, preventive (cotton leaf discs); type: in vivo; settings: foliar, 72 h, 3 days after treatment, L1 larvae
Text: Activity Against Spodoptera littoralis (Egyptian Cotton Leafworm)
(§1) (Larvicide, Feeding/Residual Contact Activity, Preventive)
The samples are checked for mortality, repellent effect, feeding behaviour, and growth regulation 3 days after treatment. In this test, compounds listed in Table P above show good activity. In particular compounds P.1, P.2, P.3, P.4, P.5, P.6, P.7, P.9, P.10, P.11, P.12, P.13, P.15, P.16, P.17, P.18, P.19, P.20, P.21, P.22, P.23, P.24, P.25, P.26, P.27, P.28, P.29, P.30, P.31, P.32, P.33, P.34, P.35, P.36, P.37, P.38, P.39, P.40, P.41, P.42, P.43, P.44, P.45, P.46, P.47, P.48, P.49, P.50, P.51, P.52, P.53, P.54, P.55, P.56, P.57, P.58, P.59, P.60, P.61, P.63, P.64, P.67, P.68 and P.70 show an activity of over 80% at a concentration of 400 ppm.

[2] = tested on: Plutella xylostella (Diamond Back Moth); experiment: Example B3: Plutella xylostella, larvicide, feeding/residual contact, preventive (artificial diet MTP); type: in vivo; settings: 120 h, 5 days incubation, L2 larvae
Experimental: Plutella xylostella (Diamond Back Moth)
as §1
24-well microtiter plate (MTP) with artificial diet is treated with test solutions by pipetting. After drying, the MTP's are infested with larvae (L2)(10-15 per well). After an incubation period of 5 days, samples are checked for larval mortality, antifeedant and growth regulation. In this test, compounds listed in Table P above show good activity. In particular compounds P.1, P.2, P.3, P.4, P.5, P.6, P.7, P.9, P.10, P.11, P.12, P.13, P.15, P.16, P.17, P.18, P.19, P.20, P.21, P.22, P.23, P.25, P.26, P.27, P.28, P.29, P.30, P.31, P.32, P.33, P.34, P.35, P.36, P.37, P.38, P.39, P.40, P.41, P.42, P.43, P.44, P.46, P.47, P.48, P.49, P.50, P.51, P.52, P.53, P.54, P.55, P.56, P.57, P.58, P.59, P.60, P.61, P.63, P.64, P.67, P.68, P.69 P.70, P.72, P.74, P.77, P78 and P.79 show an activity of over 80% at a concentration of 400 ppm.

[3] = tested on: Diabrotica balteata (Corn Root Worm); experiment: Example B4: Diabrotica balteata, larvicide, feeding/residual contact, preventive; type: in vivo; settings: 120 h, 5 days incubation, L2 larvae
Experimental: Diabrotica balteata (Corn Root Worm)
as §1
After drying, the MTP's are infested with larvae (L2)(6-10 per well). After an incubation period of 5 days, samples are checked for larval mortality, antifeedant and growth regulation. In this test, compounds listed in Table P above show good activity. In particular compounds P.1, P.2, P.5, P.6, P.10, P.11, P.12, P.13, P.15, P.16, P.17, P.18, P.19, P.24, P.25, P.27, P.28, P.29, P.30, P.31, P.33, P.34, P.35, P.37, P.38, P.39, P.42, P.43, P.44, P.45, P.46, P.47, P.48, P.49, P.50, P.52, P.53, P.65, P.67, P.68, P.69, P.70, P.71, P.72, P.75, P.78, and P.79 show an activity of over 80% at a concentration of 400 ppm.

[4] = tested on: Heliothis virescens (Tobacco Budworm); experiment: Example B2: activity against Heliothis virescens, ovo-larvicide, feeding/contact, curative; type: in vivo; settings: 96 h, 4 days incubation, eggs 0-24 h old
Experimental: Activity Against Heliothis virescens (Tobacco Budworm)
(Ovo-Larvicide, Feeding/Contact Activity, Curative)
Eggs (0-24 h old) are placed in 24-well microtiter plate on artificial diet and treated with test solutions by pipetting. After an incubation period of 4 days, samples are checked for egg mortality, larval mortality, and growth regulation.

[5] = tested on: Myzus persicae (Green Peach Aphid); experiment: Example B5: activity against Myzus persicae, mixed population, feeding/residual contact, preventive (sunflower leaf discs); settings: foliar, 144 h, read-out: activity
[6] = tested on: Thrips tabaci (Onion Thrips); experiment: Example B7: activity against Thrips tabaci, mixed population, feeding/residual contact, preventive; settings: 144 h, read-out: activity

Measured: pest or weed control at 400 ppm

CC(C)NC(=O)c1c(NC(=O)c2cc(C(F)(F)F)nn2-c2ncccc2Cl)ccc2cc[nH]c12 [P.1]
> 80%: [1] | [2] | [3] | [4]

O=C(NCC1CC1)c1c(NC(=O)c2cc(C(F)(F)F)nn2-c2ncccc2Cl)ccc2cc[nH]c12 [P.2]
not listed: [6]
> 80%: all other assays above

CC(C)NC(=O)c1c(NC(=O)c2cc(C(F)(F)F)nn2-c2ncccc2Cl)ccc2cn[nH]c12 [P.3]
> 80%: [1] | [2] | [4] | [6]

O=C(NCC1CC1)c1c(NC(=O)c2cc(C(F)(F)F)nn2-c2ncccc2Cl)ccc2cn[nH]c12 [P.4]
> 80%: [1] | [2] | [4]

O=C(NC1(C2CC2)CC1)c1c(NC(=O)c2cc(C(F)(F)F)nn2-c2ncccc2Cl)ccc2cn[nH]c12 [P.5]
> 80%: [1] | [2] | [3] | [4]

CNC(=O)c1c(NC(=O)c2cc(C(F)(F)F)nn2-c2ncccc2Cl)ccc2cn[nH]c12 [P.6]
> 80%: [1] | [2] | [3] | [4]

CSCC(C)(C)NC(=O)c1c(NC(=O)c2cc(C(F)(F)F)nn2-c2ncccc2Cl)ccc2cn[nH]c12 [P.7]
> 80%: [1] | [2] | [4]

CC(C)(CS(C)(=O)=O)NC(=O)c1c(NC(=O)c2cc(C(F)(F)F)nn2-c2ncccc2Cl)ccc2cn[nH]c12 [P.9]
> 80%: [1] | [2] | [5] | [4]

Cc1cc2c(ccc(C)[n+]2[O-])c(C(=O)NC(C)C)c1NC(=O)c1cc(C(F)(F)F)nn1-c1ncccc1Cl [P.21]
> 80%: [1] | [2] | [4]

CCNC(=O)c1c(NC(=O)c2cc(C(F)(F)F)nn2-c2ncccc2Cl)c(C)cc2nc(C)ccc12 [P.23]
> 80%: [1] | [2] | [4]

CCCc1nc2cc(C)c(NC(=O)c3cc(C(F)(F)F)nn3-c3ncccc3Cl)c(C(=O)NC(C)C)c2cc1CC [P.24]
> 80%: [1] | [3]

N#Cc1cc2cn[nH]c2c(C(=O)NC2(C3CC3)CC2)c1NC(=O)c1cc(C(F)(F)F)nn1-c1ncccc1Cl [P.26]
> 80%: [1] | [2] | [4] | [6]

COc1cc(C(=O)Nc2c(Cl)cc3c(Br)n[nH]c3c2C(=O)NC(C)C)n(-c2ncccc2Cl)n1 [P.63, 3-bromo-5-chloro-6-{[2-(3-chloro-pyridin-2-yl)-5-methoxy-2H-pyrazole-3-carbonyl]-amino}-1H-indazole-7-carboxylic acid isopropylamide]
> 80%: [1] | [2] | [4] | [6]

COc1cc(C(=O)Nc2c(Cl)cc3c(Br)n[nH]c3c2C(=O)NC2(C3CC3)CC2)n(-c2ncccc2Cl)n1 [P.64, 3-bromo-5-chloro-6-{[2-(3-chloro-pyridin-2-yl)-5-methoxy-2H-pyrazole-3-carbonyl]-amino}-1H-indazole-7-carboxylic acid bicyclopropyl-1-ylamide]
> 80%: [1] | [2] | [4] | [6]

Cc1n[nH]c2c(C(=O)NC(C)C)c(NC(=O)c3cc(C(F)(F)F)nn3-c3ncccc3Cl)c(Cl)cc12 [P.69, 5-chloro-6-{[2-(3-chloro-pyridin-2-yl)-5-trifluoromethyl-2H-pyrazole-3-carbonyl]-amino}-3-methyl-1H-indazole-7-carboxylic acid isopropylamide]
> 80%: [2] | [3] | [4]

Cc1n[nH]c2c(C(=O)NC3(C4CC4)CC3)c(NC(=O)c3cc(C(F)(F)F)nn3-c3ncccc3Cl)c(Cl)cc12 [P.72, 5-chloro-6-{[2-(3-chloro-pyridin-2-yl)-5-trifluoromethyl-2H-pyrazole-3-carbonyl]-amino}-3-methyl-1H-indazole-7-carboxylic acid bicyclopropyl-1-ylamide]
> 80%: [2] | [3] | [4]

CNC(=O)c1c(NC(=O)c2cc(C(F)(F)F)nn2-c2ncccc2Cl)ccc2cccnc12 [P.74, 7-{[2-(3-chloro-pyridin-2-yl)-5-trifluoromethyl-2H-pyrazole-3-carbonyl]-amino}-quinoline-8-carboxylic acid methylamide]
> 80%: [2] | [4]

CC(C)NC(=O)c1c(NC(=O)c2cc(C(F)(F)F)nn2-c2ncccc2Cl)ccc2ncccc12 [P.75, 6-{[2-(3-chloro-pyridin-2-yl)-5-trifluoromethyl-2H-pyrazole-3-carbonyl]-amino}-quinoline-5-carboxylic acid isopropylamide]
> 80%: [3]

CNC(=O)c1c(NC(=O)c2cc(C(F)(F)F)nn2-c2ncccc2Cl)c(C)cc2ncccc12 [P.77, 6-{[2-(3-chloro-pyridin-2-yl)-5-trifluoromethyl-2H-pyrazole-3-carbonyl]-amino}-7-methyl-quinoline-5-carboxylic acid methylamide]
> 80%: [2] | [4]

C#Cc1cc2cn[nH]c2c(C(=O)NC2(C3CC3)CC2)c1NC(=O)c1cc(C(F)(F)F)nn1-c1ncccc1Cl [P.79, 6-{[2-(3-chloro-pyridin-2-yl)-5-trifluoromethyl-2H-pyrazole-3-carbonyl]-amino}-5-ethynyl-1H-indazole-7-carboxylic acid bicyclopropyl-1-ylamide]
> 80%: [2] | [3]
